Holding throughout (assay type): cell-based
The target of one assay is T1, AKT1 E17K (Homo sapiens, UniProt P31749, E17K).
T1 construct: expressed in transfected cells; host or cells: HEK293
Put plainly: Live cell AKT1 E17K target engagement by NanoBRET competitive probe displacement. Conditions: HEK293 cells transfected with kinase-NanoLuciferase fusion, 2 h at 37° C. The method in brief: (§1)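 HEK293 cells transiently expressing kinase–NanoLuciferase fusions (overnight transfection) were treated with serial compound dilutions plus fluorescent ATP-competitive tracer at ~EC50 concentration for 2 h at 37 °C. BRET ratio E600/E460 measured after substrate and extracellular luciferase inhibitor addition; IC50 from log(inhibitor)–response Hill fit.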
On the technique in general: BRET reads energy transfer from a luciferase to a nearby fluorophore.

Another assay concerns the target T2, AKT2 (Homo sapiens, UniProt P31751).
T2 construct: expressed in transfected cells; host or cells: HEK293
Put plainly: Live cell AKT2 target engagement by NanoBRET competitive probe displacement. Conditions: HEK293 cells transfected with kinase-NanoLuciferase fusion, 2 h at 37° C. The method in brief: as §1

The next assay addresses T3, AKT1 WT (Homo sapiens, UniProt P31749).
T3 construct: expressed in transfected cells; host or cells: HEK293
The assay can be described thus: Live cell AKT1 WT target engagement by NanoBRET competitive probe displacement. Conditions: HEK293 cells transfected with kinase-NanoLuciferase fusion, 2 h at 37° C. The method in brief:
as §1

For assay [1], the system named is LAPC4 prostate cancer cells. The assay can be described thus: Antiproliferative effects in LAPC4 cells (CellTiter Glo). Conditions: LAPC4 cells (AKT1 E17K allele), read-out: LAPC4 proliferation IC50. The method in brief:
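LAPC4 cells were cultured in IMDM with 12% FBS and 1% P/S, seeded at 1,000 cells/well and exposed to compound dilutions in DMSO. After 72 h, intracellular ATP was measured by CellTiter Glo luminescence, and IC50 values came from a log(inhibitor) vs. response Hill fit.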
(In general: ATP-based viability assays read luminescence as a measure of living cells.)

The structures appear in SMILES notation. Read-outs that look alike come from different tables or passages of the source.

The results in this text go back to patent publication US12570655B2, “Cysteine covalent modifiers of AKT1 and uses thereof” (Terremoto Biosciences, Inc., priority 2023, dated 2026).

T3 sequence (P31749 whole entry): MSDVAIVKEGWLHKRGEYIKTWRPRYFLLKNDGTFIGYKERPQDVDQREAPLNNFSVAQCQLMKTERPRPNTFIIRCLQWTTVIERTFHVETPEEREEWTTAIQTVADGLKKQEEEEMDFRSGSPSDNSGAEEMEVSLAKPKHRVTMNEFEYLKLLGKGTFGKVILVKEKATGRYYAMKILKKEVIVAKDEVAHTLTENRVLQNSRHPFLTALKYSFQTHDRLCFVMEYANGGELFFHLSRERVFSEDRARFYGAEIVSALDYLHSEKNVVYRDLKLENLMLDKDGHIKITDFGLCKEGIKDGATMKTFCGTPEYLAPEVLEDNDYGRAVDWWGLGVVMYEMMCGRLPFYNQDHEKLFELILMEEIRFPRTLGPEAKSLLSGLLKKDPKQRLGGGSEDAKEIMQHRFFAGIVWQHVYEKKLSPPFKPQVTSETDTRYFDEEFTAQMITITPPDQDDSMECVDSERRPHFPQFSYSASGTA
T2 sequence (P31751 whole entry): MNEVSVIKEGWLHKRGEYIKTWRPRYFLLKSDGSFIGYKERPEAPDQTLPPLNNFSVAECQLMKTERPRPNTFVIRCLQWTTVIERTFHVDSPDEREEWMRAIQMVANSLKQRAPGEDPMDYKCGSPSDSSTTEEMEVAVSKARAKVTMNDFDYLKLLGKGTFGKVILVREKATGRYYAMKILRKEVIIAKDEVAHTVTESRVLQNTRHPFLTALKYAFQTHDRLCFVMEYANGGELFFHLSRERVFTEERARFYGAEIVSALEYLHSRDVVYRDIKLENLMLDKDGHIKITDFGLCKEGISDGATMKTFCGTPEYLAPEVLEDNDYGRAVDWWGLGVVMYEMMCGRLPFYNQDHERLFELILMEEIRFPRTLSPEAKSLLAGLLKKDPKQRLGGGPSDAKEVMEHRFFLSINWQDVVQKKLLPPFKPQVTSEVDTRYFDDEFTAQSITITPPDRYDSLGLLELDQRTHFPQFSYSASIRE
T1 sequence (P31749 whole entry E17K): as the sequence (P31749 whole entry) above, with E17K counted along it

In the case of `C=CC(=O)N1CCC(N[C@H]2CCc3cc(-n4c(-c5cccnc5N)nc5ccc(-n6cccn6)nc54)ccc32)c2ccccc21` (single isomer, unassigned) [Example 126, 1-[(4*)-4-{[(1S)-5-[2-(2-aminopyridin-3-yl)-5-(pyrazol-1-yl)imidazo[4,5-b]pyridin-3-yl]-2,3-dihydro-1H-inden-1-yl]amino}-3,4-dihydro-2H-quinolin-1-yl]prop-2-en-1-one], the IC50 on AKT1 E17K is 671 nM; at AKT2, 8570 nM; at AKT1 WT, over 1000 nM; in assay [1] (72 h) it was 5050 nM.
The corresponding values for `C=CC(=O)N1CCCC(N[C@H]2CCc3cc(-n4c(-c5cccnc5N)nc5ccc(-n6cccn6)nc54)ccc32)C1` (single isomer, unassigned) [Example 125, 1-[(3*)-3-{[(1S)-5-[2-(2-aminopyridin-3-yl)-5-(pyrazol-1-yl)imidazo[4,5-b]pyridin-3-yl]-2,3-dihydro-1H-inden-1-yl]amino}piperidin-1-yl]prop-2-en-1-one] are 914 nM, 3280 nM, 292 nM and 2110 nM.
As to `C=C(OC)C(=O)Nc1ccccc1C(=O)N[C@H]1CCc2cc(-n3c(-c4cccnc4N)nc4ccc(-n5cccn5)nc43)ccc21` [Example 108, (S)-N-(5-(2-(2-aminopyridin-3-yl)-5-(1H-pyrazol-1-yl)-3H-imidazo[4,5-b]pyridin-3-yl)-2,3-dihydro-1H-inden-1-yl)-2-(2-methoxyacrylamido)benzamide], the IC50 at AKT1 E17K turned out to be 42.4 nM; at AKT2, 165 nM; at AKT1 WT, 10.2 nM; in assay [1] (Homo sapiens, LAPC4, 72 h), 94.3 nM.
Regarding `C=CC(=O)N1CCC(N[C@H]2CCc3cc(-n4c(-c5cccnc5N)nc5ccc(-n6cccn6)nc54)ccc32)C(OC)C1` (single isomer, unassigned) [Example 116, 1-((3*,4*)-4-(((S)-5-(2-(2-aminopyridin-3-yl)-5-(1H-pyrazol-1-yl)-3H-imidazo[4,5-b]pyridin-3-yl)-2,3-dihydro-1H-inden-1-yl)amino)-3-methoxypiperidin-1-yl)prop-2-en-1-one], the IC50 on AKT1 E17K came to 339 nM; at AKT2 it was 942 nM; on AKT1 WT, 32.1 nM; in assay [1] (72 h) it was 422 nM.
Take `C=CC(=O)N1CCC(N[C@H]2CCc3cc(-n4c(-c5cccnc5N)nc5ccc(N6CC7CCC(C6)O7)nc54)ccc32)CC1` [Example 258, 1-(4-{[(1S)-5-[2-(2-aminopyridin-3-yl)-5-{8-oxa-3-azabicyclo[3.2.1]octan-3-yl}imidazo[4,5-b]pyridin-3-yl]-2,3-dihydro-1H-inden-1-yl]amino}piperidin-1-yl)prop-2-en-1-one]: the IC50 at AKT1 E17K came out at 94.7 nM; at AKT2 it was 915 nM; on AKT1 WT, 1320 nM; in assay [1] (Homo sapiens, LAPC4, 72 h), 526 nM.
Turning to `C=CC(=O)N1CCC(N[C@H]2CCc3cc(-n4c(-c5cccnc5N)nc5ccc(-c6cnn(C(F)F)c6)nc54)ccc32)CC1` [Example 187, 1-(4-{[(1S)-5-[2-(2-aminopyridin-3-yl)-5-[1-(difluoromethyl)pyrazol-4-yl]imidazo[4,5-b]pyridin-3-yl]-2,3-dihydro-1H-inden-1-yl]amino}piperidin-1-yl)prop-2-en-1-one], the IC50 turned out to be 7.3 nM at AKT1 E17K; 28.7 nM on AKT2; 46.4 nM on AKT1 WT; 64.4 nM in assay [1] (Homo sapiens, LAPC4, 72 h).
The corresponding values for `C=CC(=O)N1CCC(N[C@H]2CCc3cc(-n4c(-c5cccnc5N)nc5ccc(OC6CC6)nc54)ccc32)CC1` [Example 198, 1-(4-{[(1S)-5-[2-(2-aminopyridin-3-yl)-5-cyclopropoxyimidazo[4,5-b]pyridin-3-yl]-2,3-dihydro-1H-inden-1-yl]amino}piperidin-1-yl)prop-2-en-1-one] are 16 nM, 27 nM, 835 nM and 461 nM.
The corresponding values for `C=CC(=O)N1CCC(N[C@H]2CCc3cc(-n4c(-c5cccnc5N)nc5ccc(N6CC[C@@H](F)C6)nc54)ccc32)CC1` [Example 194, 1-(4-{[(1S)-5-[2-(2-aminopyridin-3-yl)-5-[(3R)-3-fluoropyrrolidin-1-yl]imidazo[4,5-b]pyridin-3-yl]-2,3-dihydro-1H-inden-1-yl]amino}piperidin-1-yl)prop-2-en-1-one] are 13.8 nM, 142 nM, 446 nM and 310 nM.
Turning to `C=CC(=O)N1CCC(N[C@H]2CCc3cc(-n4c(-c5ccccc5)nc5ccc(C6CC6)nc54)ccc32)CC1` [Example 246, 1-(4-{[(1S)-5-{5-cyclopropyl-2-phenylimidazo[4,5-b]pyridin-3-yl}-2,3-dihydro-1H-inden-1-yl]amino}piperidin-1-yl)prop-2-en-1-one], the IC50 at AKT1 E17K came out at 65.6 nM; on AKT2, 711 nM; at AKT1 WT, 2510 nM; in assay [1] (Homo sapiens, LAPC4, 72 h), 1600 nM.
On to `N#CN1CCC(N[C@H]2CCc3cc(-n4c(-c5cccnc5N)nc5ccc(-n6cccn6)nc54)ccc32)CC1` [Example 51, 4-{[(1S)-5-[2-(2-aminopyridin-3-yl)-5-(pyrazol-1-yl)imidazo[4,5-b]pyridin-3-yl]-2,3-dihydro-1H-inden-1-yl]amino}piperidine-1-carbonitrile], for which the IC50 turned out to be 727 nM at AKT1 E17K; 5560 nM at AKT2; 115 nM on AKT1 WT; 1460 nM in assay [1] (Homo sapiens, LAPC4, 72 h).
Turning to `C=CC(=O)N1CCC(N[C@H]2CCc3cc(-n4c(-c5cccnc5N)nc5ccc(-c6cnn(C(F)(F)F)c6)nc54)ccc32)CC1` [Example 225, 1-(4-{[(1S)-5-[2-(2-aminopyridin-3-yl)-5-[1-(trifluoromethyl)pyrazol-4-yl]imidazo[4,5-b]pyridin-3-yl]-2,3-dihydro-1H-inden-1-yl]amino}piperidin-1-yl)prop-2-en-1-one], the IC50 on AKT1 E17K came to 31.8 nM; at AKT2 it was 239 nM; at AKT1 WT it was 308 nM; in assay [1] (Homo sapiens, LAPC4, 72 h) it was 394 nM.
Turning to `C=CC(=O)N1CCC(N[C@@H]2c3ccc(-n4c(-c5cccnc5N)nc5ccc(-n6ccc(F)n6)nc54)cc3CC2F)C[C@H]1C` (single isomer, unassigned) [Example 275, 1-((2R,4*)-4-(((1R,2*)-5-(2-(2-aminopyridin-3-yl)-5-(3-fluoro-1H-pyrazol-1-yl)-3H-imidazo[4,5-b]pyridin-3-yl)-2-fluoro-2,3-dihydro-1H-inden-1-yl)amino)-2-methylpiperidin-1-yl)prop-2-en-1-one], the IC50 at AKT1 E17K stood at 84 nM; at AKT2, 81.9 nM; on AKT1 WT, 2620 nM; in assay [1] (72 h), 326 nM.
The corresponding values for `C=CC(=O)N1CCC(N[C@H]2CCc3cc(-n4c(-c5cccnc5N)nc5ccc(C6CC6)nc54)ccc32)C(C)C1` (single isomer, unassigned) [Example 231, 1-((3*,4*)-4-(((S)-5-(2-(2-aminopyridin-3-yl)-5-cyclopropyl-3H-imidazo[4,5-b]pyridin-3-yl)-2,3-dihydro-1H-inden-1-yl)amino)-3-methylpiperidin-1-yl)prop-2-en-1-one] are 74.8 nM, 174 nM, 1220 nM and 398 nM.
